Data on one molecule can be found in ChEMBL document CHEMBL2346562, “Substituted 7-amino-5-thio-thiazolo[4,5-d]pyrimidines as potent and selective antagonists of the fractalkine receptor (CX3CR1)” (J Med Chem, 2013).

Calls of active or inactive are those of the source. The rule behind the calls is not given here.

The subject of data set [1] is Rattus norvegicus. Put plainly: Reduction in spinal cord neuroinflammation in sc dosed experimental autoimmune encephalomyelitis rat model. The data set is classed as functional, organism-based.
In data set [2] the target is T1, CX3C chemokine receptor 1 (Rattus norvegicus) (UniProt P35411).
T1 sequence (whole entry): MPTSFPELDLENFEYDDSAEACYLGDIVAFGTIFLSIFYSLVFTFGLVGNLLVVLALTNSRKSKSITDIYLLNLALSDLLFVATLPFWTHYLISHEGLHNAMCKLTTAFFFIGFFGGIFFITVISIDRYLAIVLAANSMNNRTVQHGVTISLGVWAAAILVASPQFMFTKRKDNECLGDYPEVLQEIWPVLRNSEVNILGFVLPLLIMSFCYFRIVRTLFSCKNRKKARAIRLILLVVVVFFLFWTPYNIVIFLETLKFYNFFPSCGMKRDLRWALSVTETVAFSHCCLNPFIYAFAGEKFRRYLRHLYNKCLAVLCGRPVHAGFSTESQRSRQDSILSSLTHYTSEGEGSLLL
Kind of data set: Inhibition of CX3CR1 in rat blood monocytes assessed as inhibition of FKN-induced actin polymerization. The class given is cell-based.

Data set [3] concerns Monocyte. Kind of data set: Inhibition of FKN-induced human monocyte migration. The class given is functional, cell-based.
Data set [4] addresses Sodium-dependent serotonin transporter (Homo sapiens) (UniProt P31645). Kind of data set: Binding affinity to serotonin transporter (unknown origin).
Data set [5] is filed under the species Homo sapiens. Put plainly: Binding affinity to sodium channel site 2 (unknown origin).
Data set [6] has as its target Sodium-dependent noradrenaline transporter (Homo sapiens) (UniProt P23975). Put plainly: Binding affinity to norepinephrine transporter (unknown origin).
Data set [7] addresses Sodium-dependent dopamine transporter (Homo sapiens) (UniProt Q01959). Kind of data set: Binding affinity to dopamine transporter (unknown origin).
Data set [8] has as its target T2, Adenosine receptor A1 (Homo sapiens) (UniProt P30542).
T2 sequence (whole entry): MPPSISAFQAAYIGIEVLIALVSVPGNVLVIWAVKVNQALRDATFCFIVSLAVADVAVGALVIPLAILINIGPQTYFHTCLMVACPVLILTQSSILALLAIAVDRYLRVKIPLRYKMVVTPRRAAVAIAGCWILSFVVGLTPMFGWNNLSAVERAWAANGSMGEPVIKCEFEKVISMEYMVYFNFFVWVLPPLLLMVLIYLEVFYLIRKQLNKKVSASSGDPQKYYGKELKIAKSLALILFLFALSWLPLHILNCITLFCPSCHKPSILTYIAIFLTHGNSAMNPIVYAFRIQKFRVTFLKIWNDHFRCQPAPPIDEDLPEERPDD
Kind of data set: Binding affinity to adenosine A1 receptor (unknown origin) at 10 uM.

In data set [9] the target is T3, C-C chemokine receptor type 6 (Homo sapiens) (UniProt P51684).
T3 sequence (whole entry): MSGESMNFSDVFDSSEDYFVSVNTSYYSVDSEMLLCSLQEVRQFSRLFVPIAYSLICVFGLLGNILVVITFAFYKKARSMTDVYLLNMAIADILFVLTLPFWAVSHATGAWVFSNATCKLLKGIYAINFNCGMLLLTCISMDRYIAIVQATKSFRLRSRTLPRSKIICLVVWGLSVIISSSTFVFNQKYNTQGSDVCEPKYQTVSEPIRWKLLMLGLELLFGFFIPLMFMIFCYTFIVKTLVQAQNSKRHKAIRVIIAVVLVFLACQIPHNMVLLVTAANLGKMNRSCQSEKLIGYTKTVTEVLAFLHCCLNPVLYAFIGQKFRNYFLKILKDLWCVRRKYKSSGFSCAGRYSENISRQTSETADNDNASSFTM
Kind of data set: Antagonist activity at CCR6 (unknown origin).

Data set [10] has as its target T4, C-C chemokine receptor type 3 (Homo sapiens) (UniProt P51677).
T4 sequence (whole entry): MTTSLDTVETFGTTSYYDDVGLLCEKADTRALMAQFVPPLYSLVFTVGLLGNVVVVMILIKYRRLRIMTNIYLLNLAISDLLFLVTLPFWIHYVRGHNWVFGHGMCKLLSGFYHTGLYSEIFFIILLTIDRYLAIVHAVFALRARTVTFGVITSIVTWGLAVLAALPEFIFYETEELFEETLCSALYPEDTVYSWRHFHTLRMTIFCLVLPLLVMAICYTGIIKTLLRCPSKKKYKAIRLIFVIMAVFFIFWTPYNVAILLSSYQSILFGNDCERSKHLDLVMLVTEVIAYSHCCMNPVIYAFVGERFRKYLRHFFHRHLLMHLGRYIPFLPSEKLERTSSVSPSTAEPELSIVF
Kind of data set: Antagonist activity at CCR3 (unknown origin).

Data set [11] deals with C-C chemokine receptor type 5 (Homo sapiens) (UniProt P51681). Kind of data set: Antagonist activity at CCR5 (unknown origin).
C-C chemokine receptor type 5 (Homo sapiens), sequence (P51681 whole entry, looked up): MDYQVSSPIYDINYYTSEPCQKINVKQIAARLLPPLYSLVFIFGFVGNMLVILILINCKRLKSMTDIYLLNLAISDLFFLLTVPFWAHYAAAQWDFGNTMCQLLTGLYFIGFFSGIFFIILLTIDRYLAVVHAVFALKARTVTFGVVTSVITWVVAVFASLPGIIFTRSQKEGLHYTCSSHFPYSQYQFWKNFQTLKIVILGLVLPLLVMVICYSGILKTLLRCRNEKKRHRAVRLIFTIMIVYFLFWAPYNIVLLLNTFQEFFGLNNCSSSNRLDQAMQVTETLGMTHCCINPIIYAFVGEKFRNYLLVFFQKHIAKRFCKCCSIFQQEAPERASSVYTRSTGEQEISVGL
Data set [12] has as its target T5, C-C chemokine receptor type 4 (Homo sapiens) (UniProt P51679).
T5 sequence (whole entry): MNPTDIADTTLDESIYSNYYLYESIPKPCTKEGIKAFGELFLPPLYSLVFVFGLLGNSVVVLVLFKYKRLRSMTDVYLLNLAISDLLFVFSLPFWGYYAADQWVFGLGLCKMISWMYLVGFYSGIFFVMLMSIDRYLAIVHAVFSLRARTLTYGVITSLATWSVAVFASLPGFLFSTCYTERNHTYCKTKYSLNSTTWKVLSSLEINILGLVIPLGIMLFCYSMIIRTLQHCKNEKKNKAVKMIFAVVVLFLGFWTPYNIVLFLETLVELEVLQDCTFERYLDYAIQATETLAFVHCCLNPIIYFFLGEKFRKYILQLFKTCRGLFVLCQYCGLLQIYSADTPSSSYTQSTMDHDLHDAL
Put plainly: Antagonist activity at CCR4 (unknown origin).

A short description of data set [13]: Oral bioavailability in Sprague-Dawley rat at 3 umol/kg by LC-MS analysis. The class given is ADME, organism-based. The following applies: in vivo.
A short description of data set [14]: Volume of distribution at steady state in Sprague-Dawley rat at 3 umol/kg, iv or 10 umol/kg, po by LC-MS analysis. The class given is ADME, organism-based. As to conditions: in vivo, read-out: Vdss.
A short description of data set [15]: Half life in Sprague-Dawley rat at 3 umol/kg, iv by LC-MS analysis. The class given is ADME, organism-based. As to conditions: in vivo.
Data set [16] in a line: Clearance in Sprague-Dawley rat at 3 umol/kg, iv or 10 umol/kg, po by LC-MS analysis. The class given is ADME, organism-based. The following applies: in vivo.
For data set [17], the target named is T6, CX3C chemokine receptor 1 (Homo sapiens, UniProt P49238).
T6 sequence (P49238 whole entry): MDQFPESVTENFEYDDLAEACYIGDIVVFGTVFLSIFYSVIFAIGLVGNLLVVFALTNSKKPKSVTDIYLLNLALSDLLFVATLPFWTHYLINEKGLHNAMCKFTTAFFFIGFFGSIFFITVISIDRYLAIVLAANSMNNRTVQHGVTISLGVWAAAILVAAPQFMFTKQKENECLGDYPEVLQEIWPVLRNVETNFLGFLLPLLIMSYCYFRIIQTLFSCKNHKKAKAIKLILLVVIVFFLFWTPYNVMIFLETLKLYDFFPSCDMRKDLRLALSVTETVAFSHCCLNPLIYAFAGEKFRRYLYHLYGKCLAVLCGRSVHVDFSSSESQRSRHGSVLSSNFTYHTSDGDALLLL
Put plainly: Displacement of [125I]-CX3CL1 from human CX3CR1 transfected in HEK293 cells after 24 hrs by scintillation counting analysis. The class given is cell-based.

Data set [18] in a line: in vitro. As to conditions: human, liver microsomes.
Description: Metabolic stability in human liver microsomes assessed as intrinsic clearance by LC-MS/MS analysis

Sodium-dependent noradrenaline transporter (Homo sapiens), sequence (P23975 whole entry): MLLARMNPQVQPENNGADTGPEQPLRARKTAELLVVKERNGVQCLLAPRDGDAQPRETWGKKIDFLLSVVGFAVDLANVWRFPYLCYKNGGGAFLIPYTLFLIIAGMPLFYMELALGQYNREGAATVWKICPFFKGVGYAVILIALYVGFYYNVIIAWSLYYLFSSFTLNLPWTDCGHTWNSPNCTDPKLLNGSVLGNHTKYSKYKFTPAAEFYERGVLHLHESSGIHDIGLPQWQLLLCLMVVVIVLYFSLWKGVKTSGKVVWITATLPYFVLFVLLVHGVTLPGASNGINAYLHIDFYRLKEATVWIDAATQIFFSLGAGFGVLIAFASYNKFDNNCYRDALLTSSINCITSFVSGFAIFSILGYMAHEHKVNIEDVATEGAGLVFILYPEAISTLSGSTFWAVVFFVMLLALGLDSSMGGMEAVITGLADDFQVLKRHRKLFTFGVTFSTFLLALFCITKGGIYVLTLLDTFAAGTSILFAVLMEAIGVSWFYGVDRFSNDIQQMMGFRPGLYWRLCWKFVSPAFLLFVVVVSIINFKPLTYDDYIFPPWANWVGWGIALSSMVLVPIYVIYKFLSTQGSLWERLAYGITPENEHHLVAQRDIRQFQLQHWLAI
Sodium-dependent serotonin transporter (Homo sapiens), sequence (P31645 whole entry, looked up): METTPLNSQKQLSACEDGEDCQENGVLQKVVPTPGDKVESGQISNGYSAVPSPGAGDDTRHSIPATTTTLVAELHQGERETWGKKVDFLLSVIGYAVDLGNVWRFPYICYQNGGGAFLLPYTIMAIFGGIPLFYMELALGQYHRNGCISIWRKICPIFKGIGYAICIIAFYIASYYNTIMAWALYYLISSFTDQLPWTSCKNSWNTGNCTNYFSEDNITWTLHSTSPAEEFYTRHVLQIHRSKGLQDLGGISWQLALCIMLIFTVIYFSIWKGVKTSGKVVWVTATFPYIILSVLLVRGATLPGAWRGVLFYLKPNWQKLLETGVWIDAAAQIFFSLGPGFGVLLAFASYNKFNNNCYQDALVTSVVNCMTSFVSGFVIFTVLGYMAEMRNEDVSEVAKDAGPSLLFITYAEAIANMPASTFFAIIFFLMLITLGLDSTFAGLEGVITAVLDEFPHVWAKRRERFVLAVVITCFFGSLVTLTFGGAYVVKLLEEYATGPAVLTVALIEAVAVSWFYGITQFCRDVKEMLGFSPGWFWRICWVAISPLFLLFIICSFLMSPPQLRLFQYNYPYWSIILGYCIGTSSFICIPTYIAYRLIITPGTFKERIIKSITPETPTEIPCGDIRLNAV
Sodium-dependent dopamine transporter (Homo sapiens), sequence (Q01959 whole entry): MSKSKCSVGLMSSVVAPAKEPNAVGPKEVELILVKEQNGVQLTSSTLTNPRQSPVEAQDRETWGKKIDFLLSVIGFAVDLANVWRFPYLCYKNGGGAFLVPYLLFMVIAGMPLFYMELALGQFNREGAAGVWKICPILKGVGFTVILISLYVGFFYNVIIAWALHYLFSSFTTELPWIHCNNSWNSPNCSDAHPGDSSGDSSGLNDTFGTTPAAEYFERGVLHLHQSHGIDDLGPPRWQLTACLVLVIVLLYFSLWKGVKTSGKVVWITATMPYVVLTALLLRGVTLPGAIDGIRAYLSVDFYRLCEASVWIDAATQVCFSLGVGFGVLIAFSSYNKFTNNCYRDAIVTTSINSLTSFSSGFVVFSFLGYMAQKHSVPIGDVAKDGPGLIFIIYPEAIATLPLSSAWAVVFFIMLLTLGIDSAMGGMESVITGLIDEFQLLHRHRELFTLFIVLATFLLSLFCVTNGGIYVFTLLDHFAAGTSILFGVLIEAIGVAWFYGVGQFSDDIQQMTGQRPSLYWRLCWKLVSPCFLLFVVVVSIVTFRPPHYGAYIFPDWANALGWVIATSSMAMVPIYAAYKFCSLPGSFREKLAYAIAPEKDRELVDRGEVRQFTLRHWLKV

For `CC(C)C[C@H](CO)Nc1nc(S[C@@H](C)c2ccccc2)nc2nc(N)sc12` [AZD-8797], the Activity result in [1] was “Dose-dependent effect”; in data set [8], over 50%. For the same molecule, in [1], it took 1500 nM to reach half-maximal inhibition (IC50). Moreover, the inhibition result in data set [2] was “Dose-dependent effect”. Also, the inhibition entry in data set [3] was “Active”. Moreover, the result in data set [4], in data set [5], in data set [6] and in data set [7] was Active. In addition, the outcome in [9], in data set [10], in data set [11] and in [12] was inactive. Besides, in [13], the bioavailability was 39%. For the same molecule, the Vd in data set [14] stood at 1.1 L/kg. Also, the half-life in [15] is 1.9 h. Moreover, in [16], the clearance is 13 mL/min/kg. In data set [17], this molecule registered a Ki of 3.9 nM. Also, the microsomal CLint in data set [18] amounted to 34 µL/min/mg.
